This assay has as its system Utrophin A promoter linked to a luciferase reporter gene (H2K/mdx/Utro A reporter cell line). Description: Luciferase reporter assay (murine H2K cells). The format is cell-based. To be noted: Mus musculus; final concentration of 10 μM; incubated for a further 48 hrs. How it is done: The cell line used for the screen is an immortalized mdx mouse H2K cell line that has been stably transfected with a plasmid containing ≈5 kb fragment of the Utrophin A promoter including the first untranslated […] linked to a luciferase reporter gene.
Under conditions of low temperature and interferon containing media, the cells remain as myoblasts. These are plated into 96 well plates and cultured in the presence of compound for three days. The level of luciferase is then determined by cell lysis and reading of the light output from the expressed luciferase gene utilising a plate luminometer.
The H2K/mdx/Utro A reporter cell line was passaged twice a week until ≦30% confluent. The cells were grown at 33° C. in the presence of 10% CO2
To remove the myoblasts for platting, they were incubated with Trypsin/EDTA until the monolayer started to detach.
• DMEM Gibco 41966 • 20% FCS • 1% Pen/Strep • 1% glutamine • 10 mls Chick embryo extract • Interferon(1276 905 Roche) Add fresh 10 μl/50 mls medium
The H2K/mdx/Utro A reporter cell line cells were plated out into 96 well plates (Falcon 353296, white opaque) at a density of approximately 5000 cells/well in 190 μl normal growth medium. The plates were then incubated at 33° C. in the presence of 10% CO2 for 24 hrs.
Compounds were dosed by adding 10 μl of diluted compound to each well giving a final concentration of 10 μM. The plates were then incubated for a further 48 hrs
Cells were then lysed in situ following the manufacture's protocols (Promega Steady-Glo Luciferase Assay System (E2520). Then counted for 10 seconds using a plate luminometer (Victor1420).

Some results are limits rather than exact numbers.

For `CCN(CC)c1ccc(-n2nc3ccc(NC(C)=O)cc3n2)cc1` [Example 22, N-(2-(4-(diethylamino)phenyl)-2H-benzo[d][1,2,3]triazol-5-yl)acetamide], the activity at 10 µM was in the range of 201 to 300%. The value for `Cc1cc2nn(-c3ccc(Cl)cc3)nc2cc1NC(=O)C(C)C` [Example 10, N-(2-(4-chlorophenyl)-6-methyl-2H-benzo[d][1,2,3]triazol-5-yl)isobutyramide] was 201 to 300%; that for `CS(=O)(=O)c1ccc2nn(-c3ccc(Cl)cc3)[n+]([O-])c2c1` [Example 47, 2-(4-chlorophenyl)-6-(methylsulfonyl)-2H-benzo[d][1,2,3]triazole 1-oxide] was below 200%; that for `CCN(CC)c1ccc(-n2nc3ccc(NC(=O)c4ccc(Cl)cc4)cc3n2)cc1` [Example 32, 4-chloro-N-(2-(4-(diethylamino)phenyl)-2H-benzo[d][1,2,3]triazol-5-yl)benzamide] was below 200%. The value for `Cc1ccc(-n2nc3ccc(N)cc3n2)cc1C` [Example 63, 2-(3,4-dimethylphenyl)-2H-benzo[d][1,2,3]triazol-5-amine] was below 200%; that for `CCN(CC)c1ccc(-n2nc3cc(C)c(NC(=O)c4ccco4)cc3n2)cc1` [Example 18, N-(2-(4-(diethylamino)phenyl)-6-methyl-2H-benzo[d][1,2,3]triazol-5-yl)furan-2-carboxamide] was below 200%; that for `Cc1cc2nn(-c3ccc(N4CCOCC4)cc3)nc2cc1N` [Example 34, 6-methyl-2-(4-morpholinophenyl)-2H-benzo[d][1,2,3]triazol-5-amine] was 201 to 300%.

On to `CCN(CC)c1ccc(-n2nc3ccc(NC(=O)c4ccc(N(C)C)cc4)cc3n2)cc1` [Example 33, N-(2-(4-(diethylamino)phenyl)-2H-benzo[d][1,2,3]triazol-5-yl)-4-(dimethylamino)benzamide], for which the activity at 10 µM was below 200%. Regarding `COc1ccc(C(=O)Nc2cc3nn(-c4ccc(Cl)cc4)nc3cc2C)cc1` [Example 4, N-(2-(4-chlorophenyl)-6-methyl-2H-benzo[d][1,2,3]triazol-5-yl)-4-methoxybenzamide], the activity at 10 µM was 201 to 300%. To `CCN(CC)c1ccc(-n2nc3ccc(NC(=O)c4ccc(OC)cc4)cc3n2)cc1` [Example 30, N-(2-(4-(diethylamino)phenyl)-2H-benzo[d][1,2,3]triazol-5-yl)-4-methoxybenzamide] belongs below 200%. To `CS(=O)(=O)c1ccc2nn(-c3ccc4ccccc4c3)nc2c1` [Example 55, 5-(Methylsulfonyl)-2-(naphthalen-2-yl)-2H-benzo[d][1,2,3]triazole] belongs above 401%.

As to `CN1CCN(c2ccc(-n3nc4ccc(N)cc4n3)cc2)CC1` [Example 42, 2-(4-(4-methylpiperazin-1-yl)phenyl)-2H-benzo[d][1,2,3]triazol-5-amine], the activity at 10 µM was below 200%. The value for `CCCC(=O)Nc1cc2nn(-c3ccc(Cl)cc3)nc2cc1C` [Example 8, N-(2-(4-chlorophenyl)-6-methyl-2H-benzo[d][1,2,3]triazol-5-yl)butyramide] was 201 to 300%; that for `Cc1cc2nn(-c3ccc(Cl)cc3)nc2cc1N` [Example 43, 2-(4-chlorophenyl)-6-methyl-2H-benzo[d][1,2,3]triazol-5-amine] was above 401%; that for `COc1ccc(-n2nc3cc(C)c(NC(C)=O)cc3n2)cc1` [Example 66, N-(2-(4-methoxyphenyl)-6-methyl-2H-benzo[d][1,2,3]triazol-5-yl)acetamide] was below 200%. The value for `CC(=O)Nc1ccc2nn(-c3ccc(Cl)cc3)nc2c1` [Example 39, N-(2-(4-chlorophenyl)-2H-benzo[d][1,2,3]triazol-5-yl)acetamide] was above 401%; that for `Nc1ccc2nn(-c3ccc(N4CCCCC4)cc3)nc2c1` [Example 40, 2-(4-(piperidin-1-yl)phenyl)-2H-benzo[d][1,2,3]triazol-5-amine] was 201 to 300%; that for `CC(C)C(=O)Nc1ccc2nn(-c3ccc(Cl)c(Cl)c3)nc2c1` [Example 53, N-(2-(3,4-Dichlorophenyl)-2H-benzo[d][1,2,3]triazol-5-yl)isobutyramide] was above 401%. The value for `Cc1cc2nn(-c3ccc(Cl)cc3)nc2cc1NC(=O)c1ccccc1` [Example 3, N-(2-(4-chlorophenyl)-6-methyl-2H-benzo[d][1,2,3]triazol-5-yl)benzamide] was below 200%.

Consider `CCN(CC)c1ccc(-n2nc3ccc(NC(=O)c4cccnc4)cc3n2)cc1` [Example 20, N-(2-(4-(diethylamino)phenyl)-2H-benzo[d][1,2,3]triazol-5-yl)nicotinamide], for which the activity at 10 µM lay in the range of 201 to 300%. As for `CCOc1ccc(-n2nc3cc(C)c(N)cc3n2)cc1` [Example 64, 2-(4-ethoxyphenyl)-6-methyl-2H-benzo[d][1,2,3]triazol-5-amine], the activity at 10 µM is 201 to 300%.

In the case of `CCN(CC)c1ccc(-n2nc3ccc(NC(=O)c4ccccc4OC)cc3n2)cc1` [Example 31, N-(2-(4-(diethylamino)phenyl)-2H-benzo[d][1,2,3]triazol-5-yl)-2-methoxybenzamide], the activity at 10 µM is below 200%. Consider `CCN(CC)c1ccc(-n2nc3ccc(NC(=O)c4ccncc4)cc3n2)cc1` [Example 21, N-(2-(4-(diethylamino)phenyl)-2H-benzo[d][1,2,3]triazol-5-yl)isonicotinamide], for which the activity at 10 µM is below 200%.

With `CCN(CC)c1ccc(-n2nc3cc(C)c(NC(=O)c4ccncc4)cc3n2)cc1` [Example 13, N-(2-(4-(diethylamino)phenyl)-6-methyl-2H-benzo[d][1,2,3]triazol-5-yl)isonicotinamide], the activity at 10 µM fell in the range of 301 to 400%. To `CCN(CC)c1ccc(-n2nc3ccc(N)cc3n2)cc1` [Example 19, 2-(4-(diethylamino)phenyl)-2H-benzo[d][1,2,3]triazol-5-amine] belongs 301 to 400%; to `CC(C)C(=O)Nc1ccc2cn(-c3ccc(Cl)cc3)nc2c1` [Example 46, N-(2-(4-chlorophenyl)-2H-indazol-6-yl)isobutyramide], above 401%. The value for `CCCC(=O)Nc1cc2nn(-c3ccc(N(CC)CC)cc3)nc2cc1C` [Example 15, N-(2-(4-(diethylamino)phenyl)-6-methyl-2H-benzo[d][1,2,3]triazol-5-yl)butyramide] was below 200%; that for `CC(C)C(=O)Nc1ccc2nn(-c3ccc(Cl)cc3)nc2c1` [Example 37, N-(2-(4-chlorophenyl)-2H-benzo[d][1,2,3]triazol-5-yl)isobutyramide] was above 401%. The value for `Cc1cc2nn(-c3ccc(Cl)cc3)nc2cc1NC(=O)c1ccco1` [Example 11, N-(2-(4-chlorophenyl)-6-methyl-2H-benzo[d][1,2,3]triazol-5-yl)furan-2-carboxamide] was 201 to 300%. As for `Cc1cc2nn(-c3ccc(Cl)cc3)nc2cc1NC(=O)c1cccs1` [Example 6, N-(2-(4-chlorophenyl)-6-methyl-2H-benzo[d][1,2,3]triazol-5-yl)thiophene-2-carboxamide], the activity at 10 µM fell in the range of 301 to 400%.

As for `O=[N+]([O-])c1ccc2cn(-c3ccc(Cl)cc3)nc2c1` [Example 45, 2-(4-chlorophenyl)-6-nitro-2H-indazole], the activity at 10 µM was below 200%. As for `CCCCC(=O)Nc1ccc2nn(-c3ccc(N(CC)CC)cc3)nc2c1` [Example 25, N-(2-(4-(diethylamino)phenyl)-2H-benzo[d][1,2,3]triazol-5-yl)pentanamide], the activity at 10 µM was below 200%. With `CCCCC(=O)Nc1cc2nn(-c3ccc(N(CC)CC)cc3)nc2cc1C` [Example 16, N-(2-(4-(diethylamino)phenyl)-6-methyl-2H-benzo[d][1,2,3]triazol-5-yl)pentanamide], the activity at 10 µM is below 200%. `Cc1cc2nn(-c3ccc(Cl)cc3)nc2cc1NC(=O)c1cccnc1` [Example 1, N-(2-(4-chlorophenyl)-6-methyl-2H-benzo[d][1,2,3]triazol-5-yl)nicotinamide]: the activity at 10 µM was in the range of 301 to 400%. To `CS(=O)(=O)c1ccc2nn(-c3ccc(Cl)cc3)nc2c1` [Example 49, 2-(4-chlorophenyl)-5-(methylsulfonyl)-2H-benzo[d][1,2,3]triazole] belongs below 200%; to `COc1ccccc1C(=O)Nc1cc2nn(-c3ccc(Cl)cc3)nc2cc1C` [Example 5, N-(2-(4-chlorophenyl)-6-methyl-2H-benzo[d][1,2,3]triazol-5-yl)-2-methoxybenzamide], below 200%; to `CCN(CC)c1ccc(-n2nc3ccc(NC(=O)c4cccs4)cc3n2)cc1` [Example 28, N-(2-(4-(diethylamino)phenyl)-2H-benzo[d][1,2,3]triazol-5-yl)thiophene-2-carboxamide], below 200%.

Turning to `CCS(=O)(=O)c1ccc2nn(-c3ccc(Cl)c(Cl)c3)nc2c1` [Example 51, 2-(3′,4′-dichlorophenyl)-5-(ethylsulfonyl)-benzotriazole], the activity at 10 µM lay within 301 to 400%. To `CC(=O)Nc1ccc2nn(-c3ccc(F)cc3)nc2c1` [Example 69, N-(2-(4-fluorophenyl)-2H-benzo[d][1,2,3]triazol-5-yl)acetamide] belongs 201 to 300%.

(Values after patent US20100168072A1, “Drug Combinations for the Treatment of Duchenne Muscular Dystrophy” (BIOMARIN IGA LIMITED, priority 2007, published 2010).)
